From US20100120050A1, “Biomarkers For Assessing Altherosclerotic Potential” (ENTELOS, INC., priority 2008, published 2010)
Read-outs that look alike come from different tables or passages of the source.

Tested on: hepatic genes (liver)
Procedure: While the molecular target for PPARγ is not in the liver, it represents the effects of changes in metabolism of the whole animal, which impact liver lipoprotein production and clearance.
Male Sprague-Dawley (Crl:CD® (SD)(IGS)BR) rats (Charles River Laboratories, Portage, Mich.), weight matched, 7 to 8 weeks of age, were housed individually in hanging, stainless steel, wire-bottom cages in a temperature (66-77° F.), light (12-hour dark/light cycle) and humidity (30-70%) controlled room. Water and rodent diet were available ad libitum throughout the 5 day acclimatization period and during the 5 day treatment period. Housing and treatment of the animals were in accordance with regulations outlined in the USDA Animal Welfare Act (9 CFR Parts 1, 2 and 3).
Rats (three per group) were dosed daily at either a low or high dose. […] Animals were necropsied on days 0.25, 1, 3, and 5. Up to 13 tissues (e.g., liver, kidney, heart, bone marrow, blood, spleen, brain, intestine, glandular and nonglandular stomach, lung, muscle, and gonads) were collected for histopathological evaluation and microarray expression profiling on the Affymetrix Rat Whole Genome RG230 v2 platform. In addition, a clinical pathology panel consisting of 37 clinical chemistry and hematology parameters was generated from blood samples collected on days 3 and 5.
Gene expression profiling, data processing and quality control were performed using protocols recommended by. Briefly, liver samples from 3 rats were chosen at random from each treatment and control group for each timepoint for expression profile analysis on the Affymetrix Rat Whole Genome RG230 v2 microarray (Affymetrix, Santa Clara, Calif.). Log transformed signal data for all probes were array-wise normalized using the Affymetrix MASS algorithm. Expression log ratios of base 10 (log(10) ratios) were computed as the difference between the logs of the averaged normalized experimental signals and the averaged normalized time-matched vehicle control signals for each gene.

SMILES: CCc1ccc(CCOc2ccc(CC3SC(=O)NC3=O)cc2)nc1 (stereo not drawn) [pioglitazone]
- Average Log (10) Ratio: L-3-hydroxyacyl-Coenzyme A dehydrogenase, short chain (rat liver, probe AA891362, Rn.92789, oral gavage, experiments of Table 3): 0.375
- Average Log (10) Ratio: acetyl-coenzyme A acetyltransferase 1 (rat liver, probe AA899304, Rn.4054, oral gavage, experiments of Table 3): 0.171
- Average Log (10) Ratio: transferrin (rat liver, probe AA945548, Rn.91296, oral gavage, experiments of Table 3): −0.222
- Average Log (10) Ratio: sterol regulatory element binding factor 1 (rat liver, probe AF286470, Rn.801, oral gavage, experiments of Table 3): −0.118
- Average Log (10) Ratio: CCAAT/enhancer binding protein (C/EBP), delta (rat liver, probe AI176576, Rn.6975, oral gavage, experiments of Table 3): −0.035
- Average Log (10) Ratio: fatty acid synthase (rat liver, probe AI179334, Rn.9486, oral gavage, experiments of Table 3): −0.411
- Average Log (10) Ratio: peroxisome proliferator activated receptor alpha (rat liver, probe AI385341, Rn.9753, oral gavage, experiments of Table 3): 0.247
- Average Log (10) Ratio: perilipin (rat liver, probe AI406700, Rn.9737, oral gavage, experiments of Table 3): −0.187
- Average Log (10) Ratio: monoglyceride lipase (rat liver, probe AI713204, Rn.40396, oral gavage, experiments of Table 3): −0.118
- Average Log (10) Ratio: phosphatidylinositol 3-kinase, C2 domain containing, gamma polypeptide (rat liver, probe AW526669, Rn.169550, oral gavage, experiments of Table 3): −0.240
- Average Log (10) Ratio: monoglyceride lipase (rat liver, probe AY081195, Rn.40396, oral gavage, experiments of Table 3): −0.131
- Average Log (10) Ratio: mitogen-activated protein kinase 8 (rat liver, probe BE105603, Rn.4090, oral gavage, experiments of Table 3): 0.332
- Average Log (10) Ratio: ELOVL family member 6, elongation of long chain fatty acids (yeast) (rat liver, probe BF396857, Rn.46942, oral gavage, experiments of Table 3): −0.225
- Average Log (10) Ratio: sterol regulatory element binding factor 1 (rat liver, probe BF398848, Rn.801, oral gavage, experiments of Table 3): −0.092
- Average Log (10) Ratio: RIKEN cDNA 1500016L11 (DBSS) (rat liver, probe BF407188, Rn.15135, oral gavage, experiments of Table 3): −0.149
- Average Log (10) Ratio: monoglyceride lipase (rat liver, probe BG372713, Rn.40396, oral gavage, experiments of Table 3): −0.110
- Average Log (10) Ratio: Pyruvate carboxylase (rat liver, probe BG376902, Rn.11094, oral gavage, experiments of Table 3): 0.300
- Average Log (10) Ratio: acetyl CoA transferase-like (DBSS) (rat liver, probe BG377636, Rn.98393, oral gavage, experiments of Table 3): 0.071
- Average Log (10) Ratio: phospholipid transfer protein (DBSS) (rat liver, probe BI278687, Rn.117434, oral gavage, experiments of Table 3): −0.045
- Average Log (10) Ratio: guanine nucleotide binding protein, alpha stimulating, olfactory type (rat liver, probe BI281656, Rn.39132, oral gavage, experiments of Table 3): −0.386
- Average Log (10) Ratio: acetyl-Coenzyme A acyltransferase 2 (mitochondrial 3-oxoacyl-Coenzyme A thiolase) (rat liver, probe BI282488, Rn.3786, oral gavage, experiments of Table 3): 0.046
- Average Log (10) Ratio: glycerol-3-phosphate acyltransferase, mitochondrial (rat liver, probe BI288209, Rn.44456, oral gavage, experiments of Table 3): −0.319
- Average Log (10) Ratio: elongation of very long chain fatty acids (FEN1/Elo2, SUR4/Elo3, yeast)-like 3 (DBSS) (rat liver, probe BI292438, Rn.79322, oral gavage, experiments of Table 3): 0.334
- Average Log (10) Ratio: NCI_CGAP_Emb2 cDNA clone IMAGE: 4176354 (rat liver, probe BI850137, Rn.83595, oral gavage, experiments of Table 3): 0.315
- Average Log (10) Ratio: pyruvate dehydrogenase kinase, isoenzyme 3 (mapped) (rat liver, probe BM389330, Rn.18101, oral gavage, experiments of Table 3): −0.142
- Average Log (10) Ratio: 3-hydroxy-3-methylglutaryl-Coenzyme A reductase (rat liver, probe BM390399, Rn.9437, oral gavage, experiments of Table 3): −0.018
- Average Log (10) Ratio: sulfotransferase family 2A, dehydroepiandrosterone (DHEA)-preferring, member 1 (rat liver, probe D14989, Rn.91378, oral gavage, experiments of Table 3): 0.112
- Average Log (10) Ratio: apolipoprotein E (rat liver, probe J02582, Rn.32351, oral gavage, experiments of Table 3): 0.410
- Average Log (10) Ratio: stearoyl-Coenzyme A desaturase 1 (rat liver, probe J02585, Rn.1023, oral gavage, experiments of Table 3): 0.056
- Average Log (10) Ratio: apolipoprotein B (rat liver, probe M14952, Rn.33815, oral gavage, experiments of Table 3): −0.303
- Average Log (10) Ratio: NCI_CGAP_Emb2 cDNA clone IMAGE: 4176354 (rat liver, probe M15114, Rn.83595, oral gavage, experiments of Table 3): 0.052
- Average Log (10) Ratio: malic enzyme 1 (rat liver, probe M30596, Rn.161920, oral gavage, experiments of Table 3): −0.083
- Average Log (10) Ratio: glucokinase (rat liver, probe NM_012565, Rn.10447, oral gavage, experiments of Table 3): −0.220
- Average Log (10) Ratio: serine (or cysteine) peptidase inhibitor, clade E, member 1 (rat liver, probe NM_012620, Rn.29367, oral gavage, experiments of Table 3): 0.049
- Average Log (10) Ratio: adrenergic receptor, beta 1 (rat liver, probe NM_012701, Rn.87064, oral gavage, experiments of Table 3): 0.205
- Average Log (10) Ratio: hexokinase 2 (rat liver, probe NM_012735, Rn.91375, oral gavage, experiments of Table 3): 0.300
- Average Log (10) Ratio: guanylate cyclase 1, soluble, beta 3 (rat liver, probe NM_012769, Rn.87228, oral gavage, experiments of Table 3): −0.120
- Average Log (10) Ratio: guanylate cyclase 1, soluble, beta 2 (rat liver, probe NM_012770, Rn.10933, oral gavage, experiments of Table 3): −0.120
- Average Log (10) Ratio: mitogen activated protein kinase 10 (rat liver, probe NM_012806, Rn.9911, oral gavage, experiments of Table 3): 0.229
- Average Log (10) Ratio: carnitine palmitoyltransferase 2 (rat liver, probe NM_012930, Rn.11389, oral gavage, experiments of Table 3): 0.030
- Average Log (10) Ratio: 3-hydroxy-3-methylglutaryl-Coenzyme A reductase (rat liver, probe NM_013134, Rn.9437, oral gavage, experiments of Table 3): 0.086
- Average Log (10) Ratio: transforming growth factor, beta 3 (rat liver, probe NM_013174, Rn.7018, oral gavage, experiments of Table 3): −0.086
- Average Log (10) Ratio: carnitine palmitoyltransferase 1b, muscle (rat liver, probe NM_013200, Rn.6028, oral gavage, experiments of Table 3): 0.125
- Average Log (10) Ratio: solute carrier family 10, member 2 (rat liver, probe NM_017222, Rn.85891, oral gavage, experiments of Table 3): −0.206
- Average Log (10) Ratio: mitogen-activated protein kinase 9 (rat liver, probe NM_017322, Rn.9910, oral gavage, experiments of Table 3): −0.209
- Average Log (10) Ratio: acyl-Coenzyme A oxidase 1, palmitoyl (rat liver, probe NM_017340, Rn.31796, oral gavage, experiments of Table 3): 0.165
- Average Log (10) Ratio: transforming growth factor, beta 1 (rat liver, probe NM_021578, Rn.40136, oral gavage, experiments of Table 3): −0.047
- Average Log (10) Ratio: protein kinase, AMP-activated, beta 2 non-catalytic subunit (rat liver, probe NM_022627, Rn.15423, oral gavage, experiments of Table 3): −0.432
- Average Log (10) Ratio: transforming growth factor, beta 2 (rat liver, probe NM_031131, Rn.24539, oral gavage, experiments of Table 3): −0.378
- Average Log (10) Ratio: carnitine palmitoyltransferase 1a, liver (rat liver, probe NM_031559, Rn.2856, oral gavage, experiments of Table 3): 0.341
- Average Log (10) Ratio: protein kinase, AMP-activated, beta 1 non-catalytic subunit (rat liver, probe NM_031976, Rn.3619, oral gavage, experiments of Table 3): −0.188
- Average Log (10) Ratio: ATP-binding cassette, sub-family D (ALD), member 1 (DBSS) (rat liver, probe NM_033352, Rn.177278, oral gavage, experiments of Table 3): 0.292
- Average Log (10) Ratio: insulin-like growth factor binding protein, acid labile subunit (rat liver, probe NM_053329, Rn.164865, oral gavage, experiments of Table 3): −0.263
- Average Log (10) Ratio: pyruvate dehydrogenase kinase, isoenzyme 4 (rat liver, probe NM_053551, Rn.30070, oral gavage, experiments of Table 3): −0.148
- Average Log (10) Ratio: phosphatidylinositol 3-kinase, C2 domain containing, gamma polypeptide (rat liver, probe NM_053923, Rn.169550, oral gavage, experiments of Table 3): −0.055
- Average Log (10) Ratio: pyruvate dehydrogenase E1 alpha 2 (rat liver, probe NM_053994, Rn.11126, oral gavage, experiments of Table 3): −0.171
- Average Log (10) Ratio: nuclear receptor subfamily 0, group B, member 2 (rat liver, probe NM_057133, Rn.10712, oral gavage, experiments of Table 3): 0.034
- Average Log (10) Ratio: hydroxyacyl-Coenzyme A dehydrogenase/3-ketoacyl-Coenzyme A thiolase/enoyl-Coenzyme A hydratase (trifunctional protein), beta subunit (rat liver, probe NM_133618, Rn.11253, oral gavage, experiments of Table 3): 0.182
- Average Log (10) Ratio: ELOVL family member 5, elongation of long chain fatty acids (yeast) (rat liver, probe NM_134382, Rn.4243, oral gavage, experiments of Table 3): −0.191
- Average Log (10) Ratio: Glycerol-3-phosphate dehydrate dehydrogenase (mtGPDH) mRNA, 3′UTR (rat liver, probe U08027, Rn.89705, oral gavage, experiments of Table 3): 0.026
- Average Log (10) Ratio: glycerol-3-phosphate acyltransferase, mitochondrial (rat liver, probe U36771, Rn.44456, oral gavage, experiments of Table 3): −0.239
- Average Log (10) Ratio: Cytochrome P450, family 2, subfamily b, polypeptide 2 (rat, in vivo, po): 0.275
- Average Log (10) Ratio: cytochrome P450, family 2, subfamily b, polypeptide 13 (rat, in vivo, po): −0.015
- Average Log (10) Ratio: cytochrome P450, family 3, subfamily a, polypeptide 13 (rat, in vivo, po): −0.242
- Average Log (10) Ratio: cytochrome P450, family 7, subfamily a, polypeptide 1 (rat, in vivo, po): 0.320
- Average Log (10) Ratio: cytochrome P450, family 8, subfamily b, polypeptide 1 (rat, in vivo, po): 0.351
